{"source": "ChEMBL document CHEMBL1201862", "about": "“PubChem BioAssay data set” (2004)", "key": {"[1]": {"biological_target": "T1, SUMO-activating enzyme (Homo sapiens, UniProt Q9UBT2)", "T1 sequence (Q9UBE0 whole entry)": "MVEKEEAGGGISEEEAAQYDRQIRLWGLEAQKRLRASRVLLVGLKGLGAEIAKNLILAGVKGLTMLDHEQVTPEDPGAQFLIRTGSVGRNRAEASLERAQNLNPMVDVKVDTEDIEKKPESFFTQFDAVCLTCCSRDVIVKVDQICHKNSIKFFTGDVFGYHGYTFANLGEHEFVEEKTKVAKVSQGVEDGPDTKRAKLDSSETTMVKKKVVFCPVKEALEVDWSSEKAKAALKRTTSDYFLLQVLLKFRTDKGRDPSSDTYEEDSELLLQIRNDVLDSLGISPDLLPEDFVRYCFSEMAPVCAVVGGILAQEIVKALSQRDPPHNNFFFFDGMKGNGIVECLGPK", "T1 sequence (Q9UBT2 whole entry)": "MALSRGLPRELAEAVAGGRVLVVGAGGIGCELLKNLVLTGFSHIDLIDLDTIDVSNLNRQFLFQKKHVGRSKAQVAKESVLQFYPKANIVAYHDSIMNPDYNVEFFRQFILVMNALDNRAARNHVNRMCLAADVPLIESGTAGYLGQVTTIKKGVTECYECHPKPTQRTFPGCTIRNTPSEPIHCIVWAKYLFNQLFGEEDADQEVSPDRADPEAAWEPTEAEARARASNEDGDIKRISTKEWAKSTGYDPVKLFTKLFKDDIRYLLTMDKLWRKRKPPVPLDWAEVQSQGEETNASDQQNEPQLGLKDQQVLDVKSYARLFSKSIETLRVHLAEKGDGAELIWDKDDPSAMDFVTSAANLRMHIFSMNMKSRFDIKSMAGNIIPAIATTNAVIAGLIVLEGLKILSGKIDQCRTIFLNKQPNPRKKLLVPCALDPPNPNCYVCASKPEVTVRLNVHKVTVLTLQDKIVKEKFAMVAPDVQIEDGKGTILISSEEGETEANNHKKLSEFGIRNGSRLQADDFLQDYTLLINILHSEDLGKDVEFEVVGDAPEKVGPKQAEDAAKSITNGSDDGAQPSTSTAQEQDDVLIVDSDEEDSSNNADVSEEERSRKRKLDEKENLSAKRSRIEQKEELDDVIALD", "assay": "blockers of UBC9-mediated SUMO conjugation – biochemical, AlphaScreen, SUMOylation inhibitor project, confirmation (AID 2018)", "type": "functional"}, "[2]": {"biological_target": "T1, SUMO-activating enzyme", "assay": "blockers of SAE1/SAE2–UBC9 SUMO transfer – biochemical, HTRF, uHTS, primary screen (AID 2006)", "type": "protein-complex assay"}, "[3]": {"biological_target": "Induced myeloid leukemia cell differentiation protein Mcl-1 (Homo sapiens, UniProt Q07820)", "sequence (Q07820 whole entry)": "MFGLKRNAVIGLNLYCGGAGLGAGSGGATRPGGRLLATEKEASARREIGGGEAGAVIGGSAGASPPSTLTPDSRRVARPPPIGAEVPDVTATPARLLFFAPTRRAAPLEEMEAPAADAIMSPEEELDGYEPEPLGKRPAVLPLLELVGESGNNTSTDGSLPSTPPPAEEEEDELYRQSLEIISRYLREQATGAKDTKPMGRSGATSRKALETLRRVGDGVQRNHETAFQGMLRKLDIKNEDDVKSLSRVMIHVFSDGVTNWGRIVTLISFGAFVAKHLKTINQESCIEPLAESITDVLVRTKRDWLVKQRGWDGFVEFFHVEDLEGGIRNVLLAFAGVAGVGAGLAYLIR", "type": "functional"}, "[4]": {"system": "HEK293", "assay": "inhibition of NOD1-driven NF-kB reporter – cell-based, luminescence, uHTS, primary screen (AID 1578)", "type": "functional", "settings": "Homo sapiens"}, "[5]": {"system": "HEK293", "assay": "cells", "type": "functional, cell-based", "settings": "Homo sapiens"}, "[6]": {"system": "HEK293", "assay": "cells", "type": "functional, cell-based", "settings": "Homo sapiens", "remark": "listed apart in the source"}, "[7]": {"biological_target": "Nucleotide-binding oligomerization domain-containing protein 2 (Homo sapiens, UniProt Q9HC29)", "assay": "inhibition of NOD2-driven NF-kB reporter – cell-based, luminescence, uHTS, HEK293 (AID 1566)", "type": "functional"}, "[8]": {"system": "HEK293", "assay": "NOD2 signaling inhibitors in MDP-stimulated cells, cell-based, uHTS, luminescence (AID 2001)", "type": "functional", "settings": "Homo sapiens"}, "[9]": {"system": "HEK293", "assay": "cells", "type": "functional, cell-based", "settings": "Homo sapiens", "remark": "listed apart in the source"}, "[10]": {"biological_target": "T2, E3 ubiquitin-protein ligase XIAP (Homo sapiens, UniProt P98170)", "T2 sequence (P98170 whole entry)": "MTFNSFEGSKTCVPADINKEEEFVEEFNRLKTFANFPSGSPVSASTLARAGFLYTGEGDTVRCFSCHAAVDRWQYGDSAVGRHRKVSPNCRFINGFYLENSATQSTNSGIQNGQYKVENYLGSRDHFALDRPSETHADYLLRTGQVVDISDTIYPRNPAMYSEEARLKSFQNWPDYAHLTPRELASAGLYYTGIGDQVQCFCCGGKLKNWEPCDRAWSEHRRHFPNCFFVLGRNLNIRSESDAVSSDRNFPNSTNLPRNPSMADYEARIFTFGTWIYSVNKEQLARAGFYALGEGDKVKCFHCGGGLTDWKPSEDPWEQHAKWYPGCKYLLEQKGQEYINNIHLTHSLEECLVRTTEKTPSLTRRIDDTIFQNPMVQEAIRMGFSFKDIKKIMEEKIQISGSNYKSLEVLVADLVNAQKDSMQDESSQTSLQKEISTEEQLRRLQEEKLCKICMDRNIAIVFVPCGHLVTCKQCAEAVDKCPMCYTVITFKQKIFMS", "assay": "Counter Screen using XIAP-Bir3 for Chemical Antagonists of Bir1/2 domains of IAP-family anti-apoptotic proteins. [Related pubchem assays (depositor defined):AID1018, AID1449, AID1514, AID1638, AID1749, AID1750, AID488957, AID488963]"}, "[11]": {"biological_target": "T2, E3 ubiquitin-protein ligase XIAP", "assay": "small molecules displacing peptide from XIAP – biochemical, IAP family, fluorescence polarization (AID 1018)", "type": "functional"}, "[12]": {"biological_target": "Vasopressin V1a receptor (Homo sapiens, UniProt P37288)", "sequence (P37288 whole entry)": "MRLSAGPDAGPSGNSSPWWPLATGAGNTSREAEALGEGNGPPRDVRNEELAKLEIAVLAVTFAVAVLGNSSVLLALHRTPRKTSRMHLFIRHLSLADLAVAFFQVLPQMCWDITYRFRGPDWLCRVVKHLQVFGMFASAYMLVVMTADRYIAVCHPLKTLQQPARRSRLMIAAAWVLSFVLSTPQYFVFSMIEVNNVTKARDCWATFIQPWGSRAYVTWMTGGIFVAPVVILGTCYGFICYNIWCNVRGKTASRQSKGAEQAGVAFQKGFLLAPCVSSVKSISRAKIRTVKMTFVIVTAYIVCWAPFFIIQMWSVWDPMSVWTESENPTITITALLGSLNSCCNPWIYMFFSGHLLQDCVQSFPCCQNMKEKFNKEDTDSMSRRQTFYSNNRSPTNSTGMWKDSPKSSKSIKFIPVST", "assay": "Counterscreen for Oxytocin Receptor (OXTR) agonists: Fluorescence-based cell-based high throughput dose response assay to identify agonists of the vasopressin 1 receptor (V1R). [Related pubchem assays: 2435 (Primary screen (OXTR agonists in singlicate)), 434991 (Counterscreen (V1R agonists in triplicate)), 2482 (Summary (OXTR agonists)) …", "type": "functional"}, "[13]": {"biological_target": "Oxytocin receptor (Homo sapiens, UniProt P30559)", "sequence (P30559 whole entry)": "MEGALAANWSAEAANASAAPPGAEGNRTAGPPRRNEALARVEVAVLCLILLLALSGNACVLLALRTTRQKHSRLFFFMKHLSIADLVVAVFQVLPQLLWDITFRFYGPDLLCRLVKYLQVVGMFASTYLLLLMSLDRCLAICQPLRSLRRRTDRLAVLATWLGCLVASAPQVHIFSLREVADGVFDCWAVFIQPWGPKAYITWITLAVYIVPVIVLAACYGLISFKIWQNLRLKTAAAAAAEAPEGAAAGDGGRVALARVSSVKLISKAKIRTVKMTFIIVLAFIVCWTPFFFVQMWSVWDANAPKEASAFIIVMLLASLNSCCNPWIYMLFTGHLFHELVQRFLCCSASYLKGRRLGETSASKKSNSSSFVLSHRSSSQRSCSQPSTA", "assay": "Fluorescence-based cell-based high throughput dose response assay for agonists of the Oxytocin Receptor (OXTR). [Related pubchem assays: 2435 (Primary screen (OXTR agonists in singlicate)), 434991 (Counterscreen (V1R agonists in triplicate)), 2482 (Summary (OXTR agonists)), 434963 (Confirmation screen (OXTR agonists in triplicate))]", "type": "functional"}, "[14]": {"assay": "THP-1 cell cytotoxicity, dose response, cytotoxicity control for non-replicating M. tuberculosis project (AID 489025)", "type": "functional"}, "[15]": {"assay": "HepG2 cell cytotoxicity, dose response, cytotoxicity control for non-replicating M. tuberculosis project (AID 489018)", "type": "functional", "settings": "Mycobacterium tuberculosis"}, "[16]": {"assay": "Vero E6 cell cytotoxicity, dose response, cytotoxicity control for non-replicating M. tuberculosis project, secondary assay (AID 492998)", "type": "functional, VeroE6", "settings": "Vero C1008"}, "[17]": {"assay": "cells", "type": "functional"}, "[18]": {"assay": "Luminescence-based cell-based high throughput dose response assay to identify activators of the DAF-12 from the parasite S. stercoralis (ssDAF-12).", "type": "functional"}, "[19]": {"assay": "Trypanosoma cruzi growth suppression in host cells – NIH3T3 host cells, beta-gal luminescence, confirmation (AID 2044);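 also: luminescent beta-galactosidase reporter signal from transgenic T. cruzi replicating inside host cells; inhibitors lower the luminescence signal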", "type": "functional, cell-based"}, "[20]": {"assay": "NIH3T3 cell viability loss – ATP luminescence, mouse fibroblasts, counter-screen, dose response (AID 2010);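 also: cells exposed to compound for about 90 hours before reading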", "type": "functional, cell-based"}, "[21]": {"biological_target": "T3, Bcl-2-related protein A1 (Mus musculus, UniProt Q07440)", "T3 sequence (Q07440 whole entry)": "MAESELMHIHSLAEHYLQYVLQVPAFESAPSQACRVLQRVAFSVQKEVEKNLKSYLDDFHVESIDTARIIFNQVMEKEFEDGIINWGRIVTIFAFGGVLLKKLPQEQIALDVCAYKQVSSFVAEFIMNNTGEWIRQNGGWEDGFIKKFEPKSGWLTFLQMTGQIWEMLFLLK", "type": "functional"}, "[22]": {"biological_target": "T4, Ubiquitin-conjugating enzyme E2 N (Homo sapiens, UniProt P61088)", "T4 sequence (P61088 whole entry)": "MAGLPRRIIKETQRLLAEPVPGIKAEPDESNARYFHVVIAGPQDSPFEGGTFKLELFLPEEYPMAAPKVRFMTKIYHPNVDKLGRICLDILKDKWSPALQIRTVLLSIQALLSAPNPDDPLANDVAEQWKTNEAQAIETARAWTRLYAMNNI", "type": "functional"}, "[23]": {"biological_target": "T4, Ubiquitin-conjugating enzyme E2 N", "type": "functional", "remark": "listed apart in the source"}, "[24]": {"assay": "activation of miR-122 Renilla sensor silencing – cell-based, Huh7 psiCHECK-miR122, Renilla luciferase, cherry-picked, dose response (AID 651956);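 also: huh7 hepatoma cells stably carrying a psiCHECK-2 miR-122 sensor plasmid; renilla luciferase signal reporting endogenous miR-122 activity after 48 h compound exposure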", "type": "functional"}, "[25]": {"assay": "general mammalian cell viability loss – activator set, cherry-pick, cytotoxicity control for miR-122 modulator project, dose response (AID 720690);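 also: HEK293T human cells scored for general mammalian cytotoxicity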", "type": "functional, cell-based"}, "[26]": {"biological_target": "Glyceraldehyde-3-phosphate dehydrogenase (Homo sapiens, UniProt P04406)", "sequence (P04406 whole entry)": "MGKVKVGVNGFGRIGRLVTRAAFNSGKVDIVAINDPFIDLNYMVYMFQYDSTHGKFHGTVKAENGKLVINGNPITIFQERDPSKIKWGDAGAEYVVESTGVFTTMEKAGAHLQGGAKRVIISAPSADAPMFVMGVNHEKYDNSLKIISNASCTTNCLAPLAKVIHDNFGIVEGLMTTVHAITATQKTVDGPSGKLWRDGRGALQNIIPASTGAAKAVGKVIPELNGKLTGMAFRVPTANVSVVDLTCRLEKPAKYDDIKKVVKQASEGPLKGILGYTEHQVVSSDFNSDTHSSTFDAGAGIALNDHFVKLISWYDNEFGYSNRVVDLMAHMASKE"}, "[27]": {"biological_target": "T5, Alkaline phosphatase, tissue-nonspecific isozyme (Homo sapiens, UniProt P05186)", "T5 sequence (P05186 whole entry)": "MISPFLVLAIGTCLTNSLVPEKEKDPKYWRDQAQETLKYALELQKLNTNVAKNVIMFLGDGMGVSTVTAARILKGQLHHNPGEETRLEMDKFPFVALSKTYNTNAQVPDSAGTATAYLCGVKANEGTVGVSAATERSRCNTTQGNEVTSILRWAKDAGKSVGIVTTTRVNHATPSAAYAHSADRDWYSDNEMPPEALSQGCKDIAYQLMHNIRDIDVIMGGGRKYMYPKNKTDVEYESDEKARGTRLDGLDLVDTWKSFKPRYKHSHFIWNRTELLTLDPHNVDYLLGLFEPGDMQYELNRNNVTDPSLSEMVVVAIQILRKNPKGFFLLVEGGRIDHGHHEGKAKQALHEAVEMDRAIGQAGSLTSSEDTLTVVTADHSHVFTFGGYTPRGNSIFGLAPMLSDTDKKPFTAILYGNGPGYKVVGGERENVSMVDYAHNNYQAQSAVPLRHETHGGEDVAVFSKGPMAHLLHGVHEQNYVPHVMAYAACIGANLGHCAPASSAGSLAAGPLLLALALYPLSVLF", "assay": "potency against alkaline phosphatase TNAP – biochemical, luminescent, dose response, SAR follow-up (AID 1056)"}, "[28]": {"biological_target": "Peroxisome proliferator-activated receptor gamma/Nuclear receptor coactivator 1 (Homo sapiens, UniProt P37231)", "assay": "(§1) TR-FRET dose response biochemical High Throughput Screening assay for agonists of the steroid receptor coactivator 1 (SRC-1) recruitment by the peroxisome proliferator-activated receptor gamma (PPAR gamma): non-selective agonists. [Related pubchem assays (depositor defined):AID1300, AID1808, AID504735, AID631]", "type": "protein assay"}, "[29]": {"biological_target": "Peroxisome proliferator-activated receptor gamma/Nuclear receptor coactivator 3 (Homo sapiens, UniProt P37231)", "sequence (P37231 whole entry)": "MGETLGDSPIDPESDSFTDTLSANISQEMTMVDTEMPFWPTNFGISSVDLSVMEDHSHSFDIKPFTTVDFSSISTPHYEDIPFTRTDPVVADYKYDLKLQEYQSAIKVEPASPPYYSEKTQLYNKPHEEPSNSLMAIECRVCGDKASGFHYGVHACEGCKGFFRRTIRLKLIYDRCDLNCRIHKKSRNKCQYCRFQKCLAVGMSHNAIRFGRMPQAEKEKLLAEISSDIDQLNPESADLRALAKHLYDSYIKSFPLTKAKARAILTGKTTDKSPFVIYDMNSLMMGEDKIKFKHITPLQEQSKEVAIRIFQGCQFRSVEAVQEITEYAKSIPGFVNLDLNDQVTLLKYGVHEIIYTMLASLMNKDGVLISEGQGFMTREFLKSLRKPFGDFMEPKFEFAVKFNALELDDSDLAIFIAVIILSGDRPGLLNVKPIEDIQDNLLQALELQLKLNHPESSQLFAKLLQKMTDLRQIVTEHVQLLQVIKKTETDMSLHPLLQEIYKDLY", "sequence (Q9Y6Q9 whole entry, further chain)": "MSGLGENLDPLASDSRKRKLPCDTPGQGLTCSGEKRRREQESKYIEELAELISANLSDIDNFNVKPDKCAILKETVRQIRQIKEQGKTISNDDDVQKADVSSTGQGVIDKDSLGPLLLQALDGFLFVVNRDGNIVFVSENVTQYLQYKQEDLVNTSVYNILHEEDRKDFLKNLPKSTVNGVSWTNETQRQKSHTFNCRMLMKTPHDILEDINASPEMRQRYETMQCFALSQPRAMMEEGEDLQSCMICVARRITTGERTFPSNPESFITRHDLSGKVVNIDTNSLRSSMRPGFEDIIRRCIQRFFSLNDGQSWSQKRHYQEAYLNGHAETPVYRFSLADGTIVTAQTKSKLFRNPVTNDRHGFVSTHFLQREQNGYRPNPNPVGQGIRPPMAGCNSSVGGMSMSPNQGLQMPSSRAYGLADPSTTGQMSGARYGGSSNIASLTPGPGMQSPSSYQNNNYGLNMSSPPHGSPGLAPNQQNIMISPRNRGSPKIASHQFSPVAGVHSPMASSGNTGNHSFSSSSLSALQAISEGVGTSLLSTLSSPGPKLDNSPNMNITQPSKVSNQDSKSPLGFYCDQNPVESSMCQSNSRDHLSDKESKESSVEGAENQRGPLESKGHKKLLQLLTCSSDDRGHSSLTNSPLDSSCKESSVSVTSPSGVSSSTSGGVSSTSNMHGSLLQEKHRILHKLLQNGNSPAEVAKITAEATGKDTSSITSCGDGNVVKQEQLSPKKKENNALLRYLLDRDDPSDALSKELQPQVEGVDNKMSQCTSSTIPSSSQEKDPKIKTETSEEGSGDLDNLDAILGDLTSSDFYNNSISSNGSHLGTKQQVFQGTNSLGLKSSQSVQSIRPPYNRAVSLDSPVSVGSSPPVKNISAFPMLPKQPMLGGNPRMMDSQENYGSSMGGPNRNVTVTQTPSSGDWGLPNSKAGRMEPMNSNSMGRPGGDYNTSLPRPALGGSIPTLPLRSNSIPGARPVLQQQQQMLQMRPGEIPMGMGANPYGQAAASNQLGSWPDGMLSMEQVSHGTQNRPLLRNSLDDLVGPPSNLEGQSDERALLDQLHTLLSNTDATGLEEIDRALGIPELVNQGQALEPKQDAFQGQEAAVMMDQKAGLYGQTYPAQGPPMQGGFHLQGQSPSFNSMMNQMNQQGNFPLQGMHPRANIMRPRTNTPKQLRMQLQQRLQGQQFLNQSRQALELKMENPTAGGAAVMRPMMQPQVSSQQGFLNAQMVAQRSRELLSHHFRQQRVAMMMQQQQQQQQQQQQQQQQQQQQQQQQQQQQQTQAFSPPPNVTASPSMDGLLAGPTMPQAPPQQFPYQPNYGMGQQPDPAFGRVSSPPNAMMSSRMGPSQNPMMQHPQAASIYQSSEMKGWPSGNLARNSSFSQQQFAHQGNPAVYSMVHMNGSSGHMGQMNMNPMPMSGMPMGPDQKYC", "assay": "as §1, with “3 (SRC-3)” for “1 (SRC-1)”, “assays: 1301 (Confirmation screen.), 1048 (Primary screen.)]” for “assays (depositor defined):AID1300, AID1808, AID504735, AID631]”", "type": "functional"}, "[30]": {"biological_target": "Peroxisome proliferator-activated receptor gamma/Nuclear receptor coactivator 2 (Homo sapiens, UniProt P37231)", "assay": "TR-FRET dose response biochemical High Throughput Screening assay for agonists of the steroid receptor coactivator 2 (SRC-2) recruitment by the peroxisome proliferator-activated receptor gamma (PPAR gamma): non-selective agonists. [Related pubchem assays: 1297, 1032 ]", "type": "functional"}}, "note": "Active and inactive are the calls of the source."}
{"smiles": "COc1ccc(/C=C2/SC(=S)N(c3ccc(S(=O)(=O)Nc4nccs4)cc3)C2=O)cc1", "values": [{"measurement": "IC50", "setting": "[1]", "result": "1.18 µM (active)"}, {"measurement": "IC50", "setting": "[2]", "result": "5.9 µM (active)"}, {"measurement": "IC50", "setting": "[3]", "result": "1.98 µM (active)"}]}
{"smiles": "CCOc1ccccc1C(=O)N1CCN(C(c2ccccc2)c2ccccc2)CC1", "values": [{"measurement": "EC50", "setting": "[4]", "result": "14.3 µM (active)"}, {"measurement": "IC50", "setting": "[5]", "result": "15.7 µM (active)"}, {"measurement": "IC50", "setting": "[6]", "result": "> 20 µM (inactive)"}, {"measurement": "EC50", "setting": "[7]", "result": "13 µM (active)"}, {"measurement": "IC50", "setting": "[8]", "result": "> 20 µM (inactive)"}, {"measurement": "IC50", "setting": "[9]", "result": "> 20 µM (inactive)"}]}
{"smiles": "COc1ccc(CC2(CO)CCN(Cc3cnn(C)c3)CC2)cc1", "values": [{"measurement": "IC50", "setting": "[10]", "result": "> 100 µM (inactive)"}, {"measurement": "IC50", "setting": "[11]", "result": "> 100 µM (not active)"}]}
{"smiles": "Clc1ccc2c(c1)C(N1CCNCC1)Cc1ccccc1S2", "note": "(configuration not stated)", "values": [{"measurement": "EC50", "setting": "[12]", "result": "21.3 µM (not active)"}, {"measurement": "EC50", "setting": "[13]", "result": "> 9.97 µM (active)"}, {"measurement": "CC50", "setting": "[14]", "result": "12 µM (active)"}, {"measurement": "CC50", "setting": "[15]", "result": "8.65 µM (active)"}, {"measurement": "CC50", "setting": "[16]", "result": "11.5 µM (active)"}, {"measurement": "IC50", "setting": "[17]", "result": "15.5 µM (active)"}]}
{"smiles": "Cc1c(C(=O)N2CCc3ccccc32)oc2ccccc12", "values": [{"measurement": "IC50", "setting": "[10]", "result": "> 100 µM (inactive)"}, {"measurement": "IC50", "setting": "[11]", "result": "> 100 µM (not active)"}, {"measurement": "IC50", "setting": "[18]", "result": "> 67.6 µM (inactive)"}]}
{"smiles": "CCN(CC)CCNC(=O)c1ccc(NC(=O)c2cn(-c3ccc(F)cc3)nc2-c2cccc(OC)c2)cc1", "values": [{"measurement": "EC50", "setting": "[19]", "result": "3.25 µM (active)"}, {"measurement": "EC50", "setting": "[20]", "result": "> 60 µM (not active)"}, {"measurement": "IC50", "setting": "[21]", "result": "> 20 µM (inactive)"}, {"measurement": "IC50", "setting": "[22]", "result": "14.6 µM (active)"}, {"measurement": "IC50", "setting": "[23]", "result": "8.8 µM (active)"}, {"measurement": "AC50", "setting": "[24]", "result": "11.1 µM (active)"}, {"measurement": "AC50", "setting": "[25]", "result": "15.8 µM (active)"}]}
{"smiles": "O=C1C2CCCCC2C(=O)N1c1ncn[nH]1", "note": "(configuration not stated)", "values": [{"measurement": "IC50", "setting": "[26]", "result": "> 100 µM (not active)"}, {"measurement": "IC50", "setting": "[27]", "result": "> 100 µM (inactive)"}]}
{"smiles": "O=c1c2ccccc2c(-c2nnc(S)o2)nn1Cc1ccccc1", "values": [{"measurement": "EC50", "setting": "[28]", "result": "10.3 µM (inactive)"}, {"measurement": "EC50", "setting": "[29]", "result": "63.6 µM (not active)"}, {"measurement": "EC50", "setting": "[30]", "result": "11.6 µM (not active)"}]}
